Source: patent publication US20140243218A1, “COMPOSITION FOR DIAGNOSING OVARIAN CANCER METASTASIS USING CPG METHYLATION STATUS OF GENE PROMOTER AND USE THEREOF” (Ewha University - Industry Collaboration Foundation, priority 2013, published 2014)

Tested on: SK-OV-3 cell line
Test: 5-aza-2′-deoxycytidine treatment of SK-OV-3 cell line, gene expression changes by qRT-PCR
Format: cell-based, human
Procedure: Human ovarian cancer cell line SK-OV-3 was purchased from American type culture collection (ATCC no. HTB-77) and cultured in a McCoy's 5a medium containing 10% FBS (fetal bovine serum), 100 U/mL penicillin and 100 μg/mL streptomycin.
Total RNAs were extracted from SK-OV-3 cell line and the tumor tissues using an RNeasy mini kit (Qiagen), respectively. The extraction was performed according to manufacturer's instructions. The extracted total RNAs were quantified using a spectrophotometer, and RNA degradation was examined by electrophoresis in a 1% agarose gel.
For cDNA synthesis, Superscript II reverse transcriptase (Invitrogen) was used. 1 μg of total RNA and 50 ng of oligo dT were denatured at 70° C. for 10 minutes, and then mixed with a reaction mixture containing 4 μl of 5×RT buffer, 2 μl of […], 4 μl of 2.5 mM dNTP mixture, 200 units of Superscript II reverse transcriptase and 10 units of RNase inhibitor to prepare 20 μl of the resulting reaction mixture, which was reacted at 25° C. for 10 minutes, at 42° C. for 50 minutes, and at 95° C. for 5 minutes to synthesize cDNA. This cDNA was diluted at 1:4, and 2 μl thereof was used as a template for qRT-PCR. In qRT-PCR, 20 μl of reaction mixture containing 2 μl of cDNA, 10 μl of SYBR Premix EX Taq (Takara Bio), 0.4 μl of Rox reference dye (50×, Takara Bio), and 200 nM of primers of each gene was reacted at 95° C. for 30 seconds, and then repeated for 40 cycles (at 95° C. for 3 seconds, and at 60° C. for 30 seconds) using an ABI 7500fast sequence detection system (Applied Biosystems) for amplification. The PCR products were reacted at 95° C. for 15 seconds, at 60° C. for 1 minute, and at 95° C. for 15 seconds to examine their specificity. 18S rRNA expression was used as an internal control, and expressions of AGR2, CA9, GABRP, IFITM1 and MUC13 genes were normalization using the 18S rRNA expression level by a ΔΔCT method. The sequences of the primers used are as follows.
SK-OV-3 cell line was treated with a methylation inhibitor, 5-aza-2′-deoxycytidine (Sigma-Aldrich) at concentrations of 5 and 10 μM for 3 days, and then changes in AGR2, CA9, GABRP, IFITM1, and MUC13 gene expressions were measured by qRT-PCP.

[1] = SK-OV-3 cells treated at 5 and 10 μM for 3 days, qRT-PCR normalized to 18S rRNA

Nc1ncn([C@H]2C[C@H](O)[C@@H](CO)O2)c(=O)n1 [5-aza-2′-deoxycytidine]
increase in AGR2 gene expression [1]: about 2 fold
increase in CA9 gene expression [1]: about 3.4 fold
increase in GABRP gene expression [1]: about 1.8 fold
increase in IFITM1 gene expression [1]: about 1.7 fold
increase in MUC13 gene expression [1]: 17.8 fold
changes in expressions of the five genes (AGR2, CA9, GABRP, IFITM1, and MUC13) (SK-OV-3 cells, treatment for 3 days, result in words): increased expressions of the above genes were observed
